In patent US20230390297A1, “USE OF NUCLEOTIDE SYNTHESIS INHIBITORS FOR TARGETED THERAPY IN MLL3/4 COMPASS MUTANT CANCER” (priority 2022, published 2023):

Assays:
[1] = test system: RKO, HCT116, DLD1 (MLL4 mutant) and HT55, Caco2, SW1417 (MLL4 WT) cells; test: RNA-seq in colorectal cancer cells treated with LTX; assay type: cell-based, human; details: 1 μM LTX, 24 hours
Experimental: FIG. 5. MLL4 mutant colorectal cancer cells are selectively sensitive to lometrexol treatment. (A) 100 μL of 0.5×10^5 cells/mL cells were seeded in 96-well plates one day before treatment. Cells were treated with 0-30 μM lometrexol (LTX) with 3× fold dilution for 72 hours. CellTiter-Glo® luminescent cell viability assay was performed to determine the percentage of inhibition under these conditions. The line plot compares sensitivity difference of all cell lines tested. (B) RKO, HCT116, DLD1, Caco2, HT55 and SW1417 cells were treated with DMSO or 1 μM LTX for 24 hours and whole cell lysates were used for western blot against cell cycle (H3 Ser10-p, CDT1, CyclinB 1, Geminin, CyclinEl, CyclinA2, p-cdc2) and apoptosis (PARP, Caspase3) markers using Hsp90 and I3-tubulin as loading control. […] (F) A subset of representative terms from the full cluster were selected and converted into a network layout. Each term is represented by a circle node, where its size is proportional to the number of input genes fall under that term, and its color represent its cluster identity. Terms with a similarity score>0.3 are linked by an edge (the thickness of the edge represents the similarity score). The network is visualized with Cytoscape with “force-directed” layout and with edge bundled for clarity. One term from each cluster is selected to have its term description shown as label.
FIG. 18. RNA-seq data in colorectal cancer cells treated with LTX. (A) Cellular morphological change in different cells treated with LTX at 1 μM for 24 hours under bring field microscope.
FIG. 19. The unique gene expression signature of MLL4 mutant cells in response to LTX treatment. (A-B) RNA-seq track examples showing the AURKA (A) and PLK1 (B) gene expression in different cell lines in response to LTX treatment. […] The 10 common genes found in the plots were defined as “lometrexol responsive mitotic gene signature” including PLK1, AURKA, CDCA3, CDC20, SFPQ, POLA1, PSRC1, KIF20A, FAM83D, and DLGAP5. (D) Volcano plots showing the 10 genes in MLL4 WT cell lines including HT55, Caco2, and SW1417.
Gene count tables were constructed using HTseq (56) with Ensembl gene annotations and used as input for edgeR 3.0.8 (57). Genes with Benjamini-Hochburg adjusted p-values less than were differentially expressed. Batch effects were removed using ComB at-seq on the raw read counts (58). Pathway analysis was performed with Metascape (59).

[2] = test system: HCT116 sc xenografts (MLL4 mutant); test: HCT116 subcutaneous xenograft in nude mice; assay type: in vivo
Experimental: FIG. 6. Inhibition of de novo purine synthesis by lometrexol inhibits MLL4 mutant tumor growth. Tumor development after inoculation of 4×10^6 of HCT116 cells into the nude mice. Mice with HCT116 subcutaneous (sc) tumor were either treated with vehicle (DMSO, n=9) or LTX (25 mg/kg, n=9) daily for 7 days. (A) Growth plots for sc tumors in each treatment group were shown. Tumor volumes (mm3) show mean and upper SD. (B) Dot plot representation of sc tumor volume in mice at day 12 post-tumor cell injection. Unpaired t-test values for comparisons between DMSO and LTX treatment: ****, P<0.0001. (C) Photographs of nude mice (left) and sc tumor taken from these mice (right) in which HCT116 cells were inoculated into the right flank. (D) Animal survival at the indicated days after inoculation. Log-rank test was used for comparisons between DMSO and LTX treatment: ****, P<0.0001. (E) H&E staining and immunohistochemistry showing the proliferation and apoptosis in tumors with Ki-67 and TUNEL staining. The signals for Ki-67 and TUNEL are quantified and shown in the bar plots on the right.
FIG. 20. Lometrexol application in MLL4 mutant tumors in the xenograft mouse models. (A-D) Tumor development after inoculation of 4×10^6 of HT55 cells into the nude mice. Mice with HT55 subcutaneous (sc) tumor were either treated with vehicle (DMSO, n=9) or LTX (15 mg/kg, n=9) daily for 7 days. (A) Growth plots for sc tumors in each treatment group were shown. Tumor volumes (mm3) show mean and upper SD. (B) Dot plot representation of sc tumor volume in mice at day 18 post-tumor cell injection. […] (C) Photographs of nude mice (upper) and sc tumor taken from these mice (lower) in which HT55 cells were inoculated into the right flank. (D) Animal survival at the indicated days after inoculation. Log-rank test was used for comparisons between DMSO and LTX treatment. (E-H) Tumor development after inoculation of 4×10^6 of HCT116 cells into the nude mice. Mice with HCT116 subcutaneous (sc) tumor were either treated with vehicle (DMSO, n=9) or LTX (15 mg/kg, n=9) daily for 7 days. (E) Growth plots for sc tumors in each treatment group were shown. Tumor volumes (mm3) show mean and upper SD. (F) Dot plot representation of sc tumor volume in mice at day 12 post-tumor cell injection. Unpaired t-test values for comparisons between DMSO and LTX treatment: ***, P<0.001. (G) Photographs of nude mice (upper) and sc tumor taken from these mice (lower) in which HCT116 cells were inoculated into the right flank. (H) Animal survival at the indicated days after inoculation. Log-rank test was used for comparisons between DMSO and LTX treatment: ***, P<0.001.
Six-week-old female athymic mice (nu/nu genotype, BALB/c background) were purchased from Envigo (Indianapolis, IN, USA) and housed under aseptic conditions. HT55 or HCT116 cells were implanted into the flank of athymic mice as previously described (65). Briefly, 4×10^6 cells, in 0.4 ml of cell culture media with matrigel (BD Bioscience) at 1:1 ratio, were injected in the right flank of mice under anesthetization by isoflurane. […] The tumor sizes were measured on alternate days and the mice were euthanized when the tumor size reached 1000 mm^3. […]
For in vivo study, the Kaplan-Meier estimator and Prism software were used to generate and analyze survival plots. Differences between survival plots were calculated using a log-rank test. […]

[3] = LTX 25 mg/kg daily for 7 days vs DMSO

Compound: Nc1nc2c(c(=O)[nH]1)C[C@@H](CCc1ccc(C(=O)N[C@@H](CCC(=O)O)C(=O)O)cc1)CN2 [lometrexol, (2S)-2-[[4-[2-[(6R)-2-amino-4-oxo-5,6,7,8-tetrahydro-3H-pyrido[2,3-d]pyrimidin-6-yl]ethyl]benzoyl]amino]pentanedioic acid]
- differential gene expression change ([1]; MLL4 mutant vs WT cells): only induced significant differential gene expression change in MLL4 mutant cells
- PLK1 and AURKA gene expression ([1]; remained the same in MLL4 WT cells): remarkably diminished in all MLL4 mutant cells
- genes commonly downregulated in all MLL4 mutant cells (RKO, HCT116, DLD1) ([1]; unaffected in MLL4 WT cells): 885 genes
- genes commonly upregulated in MLL4 mutant cells (RKO, HCT116, DLD1) ([1]; unaffected in MLL4 WT cells): 707 genes
- tumor growth at lower dose ([2]; LTX 15 mg/kg daily for 7 days vs DMSO, tumor volume day 12 P<0.001, survival P<0.001): maintained the sensitivity to LTX at a lower dose
- apoptosis in tumors (TUNEL) [2, 3]: enhanced apoptosis
- cell proliferation in tumors (Ki-67) [2, 3]: significantly decreased
- subcutaneous tumor growth (tumor volume) ([2]; LTX 25 mg/kg intraperitoneally daily for 7 days vs DMSO, P<0.0001): significantly inhibited the subcutaneous (sc) tumor growth
- survival of recipient mice ([2]; LTX 25 mg/kg intraperitoneally daily for 7 days vs DMSO, log-rank P<0.0001): extend the survival of recipient mice
